Experimental data published in patent publication US20130267516A1, “SUBSTITUTED CYCLOPENTYL-AZINES AS CASR-ACTIVE COMPOUNDS” (LEO PHARMA A/S, priority 2010, published 2013).

Molecular target: T1, human CaSR (Homo sapiens, UniProt P41180)
T1 construct: The ORF coding for the human CaSR (genebank: NM_000388)
T1 sequence (P41180 20-1078): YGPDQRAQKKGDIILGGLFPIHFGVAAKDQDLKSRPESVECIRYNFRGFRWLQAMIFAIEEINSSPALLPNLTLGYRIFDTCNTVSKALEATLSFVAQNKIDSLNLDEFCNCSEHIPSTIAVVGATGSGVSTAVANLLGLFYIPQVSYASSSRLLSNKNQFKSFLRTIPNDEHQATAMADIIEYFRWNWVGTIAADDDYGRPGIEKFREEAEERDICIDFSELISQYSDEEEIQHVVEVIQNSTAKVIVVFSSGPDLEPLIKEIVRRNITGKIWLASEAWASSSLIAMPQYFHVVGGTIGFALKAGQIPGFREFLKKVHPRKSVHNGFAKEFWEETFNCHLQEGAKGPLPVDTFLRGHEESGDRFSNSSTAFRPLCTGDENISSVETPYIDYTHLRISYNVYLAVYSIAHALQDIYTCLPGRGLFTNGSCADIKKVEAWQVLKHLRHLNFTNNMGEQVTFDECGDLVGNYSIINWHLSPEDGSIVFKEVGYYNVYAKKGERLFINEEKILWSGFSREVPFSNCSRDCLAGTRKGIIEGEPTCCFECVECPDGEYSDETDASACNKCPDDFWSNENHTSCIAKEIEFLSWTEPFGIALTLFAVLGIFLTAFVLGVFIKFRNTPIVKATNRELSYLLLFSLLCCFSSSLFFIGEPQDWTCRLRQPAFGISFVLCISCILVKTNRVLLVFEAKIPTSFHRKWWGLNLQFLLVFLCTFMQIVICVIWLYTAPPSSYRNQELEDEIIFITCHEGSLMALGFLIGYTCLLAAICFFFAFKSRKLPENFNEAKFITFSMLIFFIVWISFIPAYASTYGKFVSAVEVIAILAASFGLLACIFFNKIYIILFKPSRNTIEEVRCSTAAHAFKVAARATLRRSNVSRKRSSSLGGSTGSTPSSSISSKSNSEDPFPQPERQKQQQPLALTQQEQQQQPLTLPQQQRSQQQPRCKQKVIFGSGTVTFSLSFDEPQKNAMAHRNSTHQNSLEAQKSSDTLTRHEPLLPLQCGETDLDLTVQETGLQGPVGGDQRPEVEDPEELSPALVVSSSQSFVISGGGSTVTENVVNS
Experiment: Functional whole cell assay (modulation of human CaSR), IP1 accumulation in CHO-K1 cells
Type: cell-based
Conditions: CHO-K1 cells stably expressing human CaSR, final Ca2+ 1.9 mM, IP1 readout; concentration giving 50% of maximum agonistic response
Source text: The assay investigates a compound's functional ability to act as a biological positive modulator on the human CaSR. Activation of the receptor expressed on CHO-K1 cells is detected through the G alpha q pathway, the activation of phospholipase C and the accumulation of intracellular inositol phosphate (IP) as described earlier [Sandrine Ferry, Bruno Chatel, Robert H. Dodd, Christine Lair, Danielle Gully, Jean-Pierre Maffrand, and Martial Ruat. Effects of Divalent Cations and of a Calcimimetic on Adrenocorticotropic Hormone Release in Pituitary Tumor Cells. Biochemical and biophysical research Communications 238, 866-873 (1997)]. The human CaSR is stably expressed on a CHO-K1 cell clone, stimulated with a basal level of calcium and challenged with the tested compound. The level of IP1 is determined using the IP-One Terbium htrf kit (Cisbio, France). CHO-K1 cells not transfected with the CaSR fail to elicit an IP1 response upon calcium and/or compound stimulation.
The ORF coding for the human CaSR (genebank: NM_000388) was acquired from Invitrogen Corp, USA and subsequently cloned into the mammalian expression vector pCDA3.1.
CHO-K1 cells were transfected using Lipofectamine according to manufacturer's protocol (400.000 cells/well were seeded in a 6-well plate and transfected after 24 hours using 2 μg DNA and 5 μl lipofectamine). After another 24 hours the cells were detached, seeded and subjected to 1 mg/ml of G-418. Following 7 days growth single clones were picked, the CaSR expression evaluated using the 5C10 antibody against CaSR, the clones with the highest expression were selected and tested for functional response. The preferred clone was cultured according to standard procedures described in ATCC (American Type Culture Collection) protocols for CHO-K1 with the addition of 500 μg/ml G-418.
On the assay day, cells were thawed, harvested and resuspended to 4*10^6 cells/ml in stimulation buffer (containing: Hepes 10 mM, MgCl2 0.5 mM, KCl 4.2 mM, NaCl 146 mM, glucose 5.5 mM, LiCl 50 mM, BSA 0.5% at pH 7.4). Ten μl cell solution was pipetted into wells of a white 384-well plate (Perkin Elmer Optiplate) containing 2 μl compound diluted in assay buffer (containing: Hepes 10 mM, MgCl2 0.5 mM, KCl 4.2 mM, NaCl 146 mM, glucose 5.5 mM, LiCl 50 mM, CaCl2 11.4 mM at pH 7.4), resulting in a final Ca^2+ concentration of 1.9 mM. After compound stimulation for 1 hour at 37° C. and 15 min at room temperature, 10 ul of IP-One assay detection reagent (prepared as described by the IP-One assay kit manufacturer) was added and the plate was incubated for another 1 hour at room temperature. Finally the plate was read using a Perkin Elmer EnVision, according to the protocol supplied by the IP-One assay kit manufacturer. The FRET ratio was calculated by dividing the 665 nm emission signal with that of the 615 nm.
The molar concentration of a compound that produces 50% of the maximum agonistic response (the […] value) is calculated according to the equation “General sigmoidal curve with Hill slope, a to d” (Equation 1). This model describes a sigmoidal curve with an adjustable baseline. The equation can be used to fit curves where response is either increasing or decreasing with respect to the independent variable, X.
y=(a−d)/(1+(x/c)̂b)+d Equation 1.
x=concentration of tested compound y=response (%) a=min response as compound concentration approaches 0 d=max response as concentration of tested compound is increasing c=IC50 for the curve b=Hill coefficient or curve slope

## C[C@@H](N[C@H]1CC[C@@H](c2ccc(NCCNCCO)nc2)C1)c1cccc2ccccc12.O=CO.O=CO.O=CO [Compound 101, 2-[2-[[5-[(1R,3S)-3-[[(1R)-1-(1-Naphthyl)ethyl]amino]cyclopentyl]-2-pyridyl]amino]ethylamino]ethanol]
  EC50: < 200 nM

## COc1cc([C@@H](C)N[C@H]2CC[C@@H](c3ccc(NC4CCNCC4)nc3)C2)ccc1F [Compound 107, 5-[(1R,3S)-3-[[(1R)-1-(4-Fluoro-3-methoxy-phenyl)ethyl]amino]cyclopentyl]-N-(4-piperidyl)pyridin-2-amine]
  EC50: < 200 nM

## COc1cc([C@@H](C)N[C@H]2CC[C@@H](c3ccc(N4CCNC(=O)C4)nc3)C2)ccc1F [Compound 109, 4-[5-[(1R,3S)-3-[[(1R)-1-(4-Fluoro-3-methoxy-phenyl)ethyl]amino]cyclopentyl]-2-pyridyl]piperazin-2-one]
  EC50: < 200 nM

## COc1cc([C@@H](C)N[C@H]2CC[C@@H](c3ccc(NCCS(N)(=O)=O)nc3)C2)ccc1F [Compound 113, 2-[[5-[(1R,3S)-3-[[(1R)-1-(4-Fluoro-3-methoxyphenyl)ethyl]amino]cyclopentyl]-2-pyridyl]amino]ethanesulfonamide]
  EC50: < 200 nM

## COc1cc([C@@H](C)N[C@H]2CC[C@@H](c3ccc(NCC(O)CO)nc3)C2)ccc1F (stereo partly drawn) [Compound 115, 3-[[5-[(1R,3S)-3-[[(1R)-1-(4-Fluoro-3-methoxyphenyl)ethyl]amino]cyclopentyl]-2-pyridyl]amino]propane-1,2-diol]
  EC50: 200 to 1000 nM

## COc1cc([C@@H](C)N[C@H]2CC[C@@H](c3ccc(N4CCN(C(C)=O)CC4)nc3)C2)ccc1F [Compound 116, 1-[4-[5-[(1R,3S)-3-[[(1R)-1-(4-Fluoro-3-methoxyphenyl)ethyl]amino]cyclopentyl]-2-pyridyl]piperazin-1-yl]ethanone]
  EC50: < 200 nM

## COc1cc([C@@H](C)N[C@H]2CC[C@@H](c3cnc(N4CCNC(=O)C4)nc3)C2)ccc1F [Compound 126, 4-[5-[(1R,3S)-3-[[(1R)-1-(4-Fluoro-3-methoxy-phenyl)ethyl]amino]cyclopentyl]pyrimidin-2-yl]piperazin-2-one]
  EC50: < 200 nM

## COc1cc([C@@H](C)N[C@H]2CC[C@@H](c3cnc(N4CCN(C(C)=O)CC4)nc3)C2)ccc1F.O=CO [Compound 127, 1-[4-[5-[(1R,3S)-3-[[(1R)-1-(4-Fluoro-3-methoxy-phenyl)ethyl]amino]cyclopentyl]pyrimidin-2-yl]piperazin-1-yl]ethanone]
  EC50: 200 to 1000 nM
